Measurements: patent publication US8937091B2 (Japan Science and Technology Agency, priority 2009, dated 2015)

What was measured:
[1] = tested on: SOCE (store operated calcium entry) in CHO cells; assay: Assay of SOCE (store operated calcium entry)-inhibiting action; format: cell-based, Chinese hamster; conditions: Cricetulus griseus, CHO, CHO cells, thapsigargin, read-out: SOCE level (percentage of inhibition); for inhibition at 10 µM: test compound 10 μmol; for inhibition at 30 µM: test compound 30 μmol; for inhibition at 100 µM: test compound 100 μmol
Method in brief: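 CHO cells in calcium-free BSS received compound, then 1 μM thapsigargin 2 min later to deplete stores; after 9 min, 2 mM calcium chloride (final) added. Percent inhibition of the rise in intracellular calcium determined at various compound concentrations.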

[2] = tested on: IICR (IP3 induced calcium release) in CHO cells; assay: Assay of IICR (IP3 induced calcium release)-inhibiting action; format: cell-based, Chinese hamster; conditions: Cricetulus griseus, CHO, CHO cells, 10 μM ATP, read-out: IICR level (percentage of inhibition); for inhibition at 10 µM: test compound 10 μmol; for inhibition at 30 µM: test compound 30 μmol; for inhibition at 100 µM: test compound 100 μmol
Method in brief: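 CHO cell medium replaced with calcium-containing BSS; compound added 1 min later, then 10 μM ATP after a further 2 min. Percent inhibition of the ATP-evoked rise in intracellular calcium determined at each compound concentration.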

| SMILES | inhibition at 10 µM [1] [%] | inhibition at 30 µM [1] [%] | inhibition at 100 µM [1] [%] | inhibition at 10 µM [2] [%] | inhibition at 30 µM [2] [%] | inhibition at 100 µM [2] [%] |
| --- | --- | --- | --- | --- | --- | --- |
| CCC(CO)(CO)NCCC(=O)c1ccc(Br)s1 [Example 365, 2-(N-1,1-bishydroxymethylpropyl)aminoethyl-5-bromo-2-thienylketone] | 0 | 0 | 10 | 0 | 0 | 70 |
| NCCSSCCN(CCC(=O)c1ccc(Cl)s1)CCC(=O)c1ccc(Cl)s1 [Example 366, N,N-bis(2-(5-chloro-2-thiophenoyl)ethyl)cystamine] | 6 | 0 | 90 | 0 | 0 | 70 |
| NCCSSCCN(CCC(=O)c1ccc(Br)cc1)CCC(=O)c1ccc(Br)cc1 [Example 367, N,N-bis(2-(4-bromo-benzoyl)ethyl)cystamine] | 0 | 17 | 96 | 0 | 0 | 70 |
| CCCCN(CCC(=O)c1ccc(Br)s1)Cc1ccccc1 [Example 373, 2-(N-butyl-N-benzyl)aminoethyl-5-bromo-2-thienylketone] | 100 | 28 | 65 | 0 | 36 | 0 |
| CCCCN(CCC(=O)c1ccc(Cl)s1)Cc1ccccc1 [Example 374, 2-(N-butyl-N-benzyl)aminoethyl-5-chloro-2-thienylketone] | 0 | 0 | 53 | 0 | 8 | 0 |
| CCCCN(CCC(=O)c1ccc(Br)cc1)Cc1ccccc1 [Example 375, 2-(N-butyl-N-benzyl)aminoethyl-4-bromophenylketone] | 4 | 0 | 40 | 0 | 33 | 0 |
| CCCCN(CCC(=O)c1ccncc1)Cc1ccccc1 [Example 376, 2-(N-butyl-N-benzyl)aminoethyl-4-pyridylketone] | 21 | 0 | 27 | 18 | 84 | 51 |
| CCCCN(CCC(=O)c1ccco1)Cc1ccccc1 [Example 377, 2-(N-butyl-N-benzyl)aminoethyl-2-furylketone] | 21 | 0 | 27 | 22 | 20 | 36 |
| CCCCN(CCC(=O)c1ccc2ccccc2c1)Cc1ccccc1 [Example 378, 2-(N-butyl-N-benzyl)aminoethyl-2-naphthylketone] | 0 | 0 | 41 | 50 | 24 | 46 |
| O=C(CCN(CCO)Cc1ccccc1)c1ccc(I)s1 [Example 379, 2-(N-2-hydroxyethyl-N-benzyl)aminoethyl-5-iodo-2-thienylketone] | 20 | 40 | 50 | 50 | 24 | 46 |
| O=C(CCNCc1ccccc1)c1ccc(Br)s1 [Example 382, 2-N-benzylaminoethyl-5-bromo-2-thienylketone] | 0 | 10 | 20 | 0 | 10 | 50 |
| CCCCCCN(CCCCCC)CCC(=O)c1ccc(Br)s1 [Example 383, 2-(N,N-dihexyl)aminoethyl-5-bromo-2-thienylketone] | 25 | 16 | 46 | 0 | 5 | 0 |
